Assay results reported in patent publication US20190275027A1 (priority 2018, published 2019).
“And” between values parts separate entries of the source, which are not always exact repeats. Equal entries are not always repeated. Where two headings read alike, the source gives them in different places.

Tests used:
[1] = test system: wild type Ebola virus, Mayinga strain; assay: microbe, parasite or virus in culture; assay type: cell-based; conditions: for IC50: Zaire ebolavirus, Huh-7, 24 h, read-out: EBOV IC50
MARV = assay: organism not typed; assay type: cell-based, Marburg virus; conditions: read-out: MARV IC50
EBOV = test system: EBOV; parameters: species or system murine; conditions: mouse, in vivo
physchem = conditions: pH 7.4, aqueous buffer, kinetic from dmso stock
EBOV virus = test system: EBOV virus; parameters: species or system BALB/c mice; conditions: mouse, in vivo

Compound | IC50 [1] | IC50 (MARV) | other results
COc1cc2c(cc1OC)[C@@H](Cc1cccc(Oc3cccc(C[C@@H]4c5cc6c(cc5CCN4C)OCO6)c3)c1)N(C)CC2 [B3-36^R,R] | 413 ± 51 nM | 495 ± 66 nM | –
COc1ccc2c(c1)CCN(C)[C@@H]2Cc1ccc(Oc2ccc(C[C@@H]3c4ccc(OC)cc4CCN3C)cc2)cc1 [B4-14^RR] | – | – | EBOV activity (in words) [1]: good activity
COc1cc2c(cc1OC)[C@@H](Cc1ccc(Oc3ccc(C[C@@H]4c5cc(OC)c(OC)cc5CCN4C)cc3OC)c(OC)c1)N(C)CC2 [Compound 1] | 730 ± 60 nM | 506 ± 87 nM | Efficacy (in words) (EBOV): good efficacy; Survival (EBOV): 4/7 and 0/7; solubility (physchem): > 100 µM; % Survival (EBOV virus): 100%; Efficacy against Ebola virus challenge (in words) (EBOV virus): statistically significant improvement when compared to TETN and saline; Survival (EBOV virus): 7/7
COc1cc2c(cc1OC)[C@@H](Cc1ccc(Oc3cc(C[C@@H]4c5cc(OC)c(OC)cc5CCN4C)ccc3OC)c(OC)c1)N(C)CC2 [Compound 2] | 1050 ± 90 nM | 1240 ± 269 nM | % Survival (EBOV): 57% and 43%; Efficacy (in words) (EBOV): good efficacy; Survival (EBOV): 4/7 and 3/7; Efficacy (in words) (EBOV; 5 mg/kg): moderate efficacy; solubility (physchem): > 100 µM; % Survival (EBOV virus): 100%; Efficacy against Ebola virus challenge (in words) (EBOV virus): statistically significant improvement when compared to TETN and saline; Survival (EBOV virus): 7/7
COc1cc2c(cc1OC)[C@@H](Cc1ccc(OC)c(Oc3cc(C[C@@H]4c5cc(OC)c(OC)cc5CCN4C)ccc3OC)c1)N(C)CC2 [Compound 3] | 1220 ± 119 nM | 1100 ± 222 nM | solubility (physchem): > 100 µM; % Survival (EBOV virus): 71%; Efficacy against Ebola virus challenge (in words) (EBOV virus): good efficacy; Survival (EBOV virus): 5/7
COc1cc2c(cc1OC)[C@@H](Cc1ccc(Oc3ccc(C[C@@H]4c5cc(OC)c(OC)cc5CCN4C)cc3OC)nc1)N(C)CC2 [Compound 4] | 446 ± 57 nM | 566 ± 108 nM | solubility (physchem): > 100 µM; % Survival (EBOV virus): 71%; Efficacy against Ebola virus challenge (in words) (EBOV virus): good efficacy; Survival (EBOV virus): 5/7
COc1ccc2c(c1)CCN(C)[C@@H]2Cc1ccc(Oc2ccc(C[C@@H]3c4cc(OC)c(OC)cc4CCN3C)cn2)c(OC)c1 [Compound 5] | 505 ± 32 nM | 414 ± 70 nM | solubility (physchem): > 100 µM
COc1ccc2c(c1)CCN(C(C)C)[C@@H]2Cc1ccc(Oc2ccc(C[C@@H]3c4ccc(OC)cc4CCN3C(C)C)cc2)cc1 [Compound 41] | 249 ± 19 nM | 188 ± 40 nM | –
COc1ccc2c(c1)CCN(Cc1ccccc1)[C@@H]2Cc1ccc(Oc2ccc(C[C@@H]3c4ccc(OC)cc4CCN3Cc3ccccc3)cc2)cc1 [Compound 42] | > 1000 nM | > 1000 nM | –
COc1cc(C[C@@H]2c3cc4c(cc3CCN2C)OCO4)ccc1Oc1ccc(C[C@@H]2c3cc4c(cc3CCN2C)OCO4)cc1OC [Compound 45] | 372 ± 34 nM | 339 ± 56 nM | –
COc1cc2c(cc1OC)[C@@H](Cc1ccc(Oc3cccc(C[C@@H]4c5cc(OC)c(OC)cc5CCN4C)c3)nc1)N(C)CC2 [Compound 48] | 875 ± 110 nM | 1490 ± 320 nM | –
COc1cc2c(cc1OC)[C@@H](Cc1cccc(Oc3cc(C[C@@H]4c5cc(OC)c(OC)cc5CCN4C)ccc3OC)c1)N(C)CC2 [Compound 51] | 1090 ± 72 nM | 1180 ± 179 nM | –
COc1ccc(C[C@@H]2c3cc4c(cc3CCN2C)OCO4)cc1Oc1cc(C[C@@H]2c3cc4c(cc3CCN2C)OCO4)ccc1OC [Compound 52] | 615 ± 40 nM | 585 ± 154 nM | –
COc1ccc2c(c1)CCN(C)[C@@H]2Cc1cccc(Oc2cc(C[C@@H]3c4ccc(OC)cc4CCN3C)ccc2OC)c1 [Compound B3-12] | 1110 ± 179 nM | 839 ± 158 nM | –
CN1CCc2cc3c(cc2[C@H]1Cc1cccc(Oc2cccc(C[C@@H]4c5cc6c(cc5CCN4C)OCO6)c2)c1)OCO3 [Compound B3-35] | 789 ± 97 nM | 537 ± 60 nM | –
COc1ccc2c(c1)CCN(C)[C@@H]2Cc1ccc(OC)c(Oc2cc(C[C@@H]3c4ccc(OC)cc4CCN3C)ccc2OC)c1 [Compound B3-42] | 617 ± 45 nM | 418 ± 47 nM | –
COc1ccc2c(c1)CCN(C)[C@@H]2Cc1ccc(Oc2ccc(C[C@@H]3c4ccc(OC)cc4CCN3C)cc2OC)cc1 [Compound B4-17] | 134 ± 16 nM | 133 ± 26 nM | –
COc1ccc2c(c1)CCN(C)[C@@H]2Cc1cccc(Oc2ccc(C[C@@H]3c4cc(OC)c(OC)cc4CCN3C)cc2)c1 [Compound B4-21] | 424 ± 82 nM | 467 ± 93 nM | –
COc1ccc2c(c1)CCN(C)[C@@H]2Cc1ccc(Oc2ccc(C[C@@H]3c4cc(OC)c(OC)cc4CCN3C)cc2)cc1 [Compound B4-24] | 125 ± 26 nM | 130 ± 49 nM | –
COc1cc2c(cc1OC)[C@@H](Cc1ccc(Oc3cccc(C[C@@H]4c5cc(OC)c(OC)cc5CCN4C)c3)cc1)N(C)CC2 [Compound B4-26] | 530 ± 81 nM | 770 ± 89 nM | –
COc1ccc2c(c1)CCN(C)[C@@H]2Cc1cccc(Oc2ccc(C[C@@H]3c4cc5c(cc4CCN3C)OCO5)cc2)c1 [Compound B4-31] | 775 ± 156 nM | 1180 ± 105 nM | –
COc1ccc2c(c1)CCN(C)[C@@H]2Cc1ccc(Oc2ccc(C[C@@H]3c4cc5c(cc4CCN3C)OCO5)cc2)cc1 [Compound B4-34] | 65 ± 16 nM | 148 ± 48 nM | –
COc1cc2c(cc1OC)[C@@H](Cc1cccc(Oc3ccc(C[C@@H]4c5cc6c(cc5CCN4C)OCO6)cc3)c1)N(C)CC2 [Compound B4-36] | 415 ± 43 nM | 487 ± 88 nM | –
COc1ccc2cc1Oc1ccc(cc1)C[C@H]1c3cc(c(OC)cc3CCN1C)Oc1c(OC)c(OC)cc3c1[C@H](C2)N(C)CC3 [TETN, tetrandrine, reference compound] | 292 ± 31 nM | 370 ± 95 nM | solubility (physchem): > 100 µM; % Survival (EBOV virus): 57%; Survival (EBOV virus): 4/7
